Results on 15 compounds are retold here after US9227930B2, “Aminoindane derivatives, pharmaceutical compositions containing them, and their use in therapy” (ABBOTT LABORATORIES, priority 2010, dated 2016).

Where a name gives a salt, the structure may show the parent alone. Some results are limits rather than exact numbers.

Chain of human GlyT1c transporter (P48067 whole entry): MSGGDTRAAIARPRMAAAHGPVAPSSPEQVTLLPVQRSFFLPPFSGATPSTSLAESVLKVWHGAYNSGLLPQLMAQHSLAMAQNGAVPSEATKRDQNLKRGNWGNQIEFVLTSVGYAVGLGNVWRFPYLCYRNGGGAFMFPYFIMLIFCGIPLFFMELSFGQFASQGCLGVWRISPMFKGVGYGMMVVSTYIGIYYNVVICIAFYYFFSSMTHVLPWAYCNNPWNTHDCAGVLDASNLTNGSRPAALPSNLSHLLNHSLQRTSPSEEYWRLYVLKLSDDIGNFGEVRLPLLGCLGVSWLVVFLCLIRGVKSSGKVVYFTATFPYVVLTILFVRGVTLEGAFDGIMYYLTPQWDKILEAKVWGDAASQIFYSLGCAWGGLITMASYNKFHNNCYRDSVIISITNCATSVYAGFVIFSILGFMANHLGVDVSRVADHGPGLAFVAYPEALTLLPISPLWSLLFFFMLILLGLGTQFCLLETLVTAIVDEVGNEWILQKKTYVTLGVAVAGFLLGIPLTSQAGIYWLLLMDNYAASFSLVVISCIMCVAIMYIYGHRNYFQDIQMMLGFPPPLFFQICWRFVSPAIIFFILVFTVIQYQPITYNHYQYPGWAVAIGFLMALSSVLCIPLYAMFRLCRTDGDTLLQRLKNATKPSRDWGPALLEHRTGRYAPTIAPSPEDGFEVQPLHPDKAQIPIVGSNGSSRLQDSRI

The target of the test is human GlyT1c transporter (Homo sapiens (Human), UniProt P48067). As to the kind of experiment: Radioligand binding assay using recombinant CHO cell membranes expressing human GlyT1. The following applies: read-out: radioligand binding Kiapp. The method, then:
2. Radioligand binding assays using recombinant CHO cell membranes expressing human GlyT1:
Radioligand binding to human GlyT1c transporter-expressing membranes was determined as described in Mezler et al., Molecular Pharmacology 74:1705-1715, 2008.
Regarding `CN[C@@H]1Cc2cc(F)c(OCCNS(=O)(=O)c3cn(C)cn3)cc2[C@@H]1Cc1ccccc1` (relative stereo) [Example 200, cis-N-(2-(3-Benzyl-6-fluoro-2-(methylamino)-2,3-dihydro-1H-inden-5-yloxy)ethyl)-1-methyl-1H-imidazole-4-sulfonamide], the Ki was ≤ 100 nM.
For `Cn1cnc(S(=O)(=O)NCCOc2cc3c(cc2F)C[C@@H](N2CCC2)[C@H]3Cc2ccccc2)c1` (relative stereo) [Example 201, cis-N-(2-{[2-(Azetidin-1-yl)-3-benzyl-6-fluoro-2,3-dihydro-1H-inden-5-yl]oxy}ethyl)-1-methyl-1H-imidazole-4-sulfonamide] the value was ≤ 100 nM; for `Cn1cnc(S(=O)(=O)NCCOc2cc3c(cc2F)C[C@@H](N2CC(C)(O)C2)[C@H]3Cc2ccccc2)c1` (relative stereo) [Example 206, cis-N-(2-{[3-Benzyl-6-fluoro-2-(3-hydroxy-3-methylazetidin-1-yl)-2,3-dihydro-1H-inden-5-yl]oxy}ethyl)-1-methyl-1H-imidazole-4-sulfonamide], ≤ 100 nM; for `CN[C@@H]1Cc2cc(F)c(CNS(=O)(=O)c3cn(C)cn3)cc2[C@@H]1Cc1ccccc1` (relative stereo) [Example 209a, cis-N-{[3-Benzyl-6-fluoro-2-(methylamino)-2,3-dihydro-1H-inden-5-yl]methyl}-1-methyl-1H-imidazole-4-sulfonamide], ≤ 10 nM.
Turning to `CN[C@@H]1Cc2cc(F)c(CNS(=O)(=O)c3cn(C)cn3)cc2[C@H]1Cc1ccccc1` (relative stereo) [Example 209b, trans-N-{[3-benzyl-6-fluoro-2-(methylamino)-2,3-dihydro-1H-inden-5-yl]methyl}-1-methyl-1H-imidazole-4-sulfonamide], the Ki is ≤ 10 nM.
Regarding `CCOC(=O)NC1Cc2ccc(OCCNS(=O)(=O)c3cn(C)cn3)cc2C1Cc1ccccc1` (stereo not drawn) [Example 195, Ethyl 1-benzyl-6-(2-(1-methyl-1H-imidazole-4-sulfonamido)ethoxy)-2,3-dihydro-1H-inden-2-ylcarbamate], the Ki is ≤ 1000 nM.
The same measure for `CCOC(=O)NC1Cc2ccc(OCCNS(=O)(=O)c3nccn3C)cc2C1Cc1ccccc1` (stereo not drawn) [Example 196, Ethyl 1-benzyl-6-(2-(1-methyl-1H-imidazole-2-sulfonamido)ethoxy)-2,3-dihydro-1H-inden-2-ylcarbamate]: ≤ 10000 nM; for `Cn1cnc(S(=O)(=O)NCCOc2ccc3c(c2)C(Cc2ccccc2)C(N)C3)c1` (stereo not drawn) [Example 197, N-{2-[(2-Amino-3-benzyl-2,3-dihydro-1H-inden-5-yl)oxy]ethyl}-1-methyl-1H-imidazole-4-sulfonamide hydrochloride]: ≤ 100 nM; for `Cn1ccnc1S(=O)(=O)NCCOc1ccc2c(c1)C(Cc1ccccc1)C(N)C2` (stereo not drawn) [Example 198, N-(2-(2-Amino-3-benzyl-2,3-dihydro-1H-inden-5-yloxy)ethyl)-1-methyl-1H-imidazole-2-sulfonamide hydrochloride]: ≤ 10000 nM.
In the case of `CNC1Cc2ccc(OCCNS(=O)(=O)c3cn(C)cn3)cc2C1Cc1ccccc1` (stereo not drawn) [Example 199, N-(2-(3-Benzyl-2-(methylamino)-2,3-dihydro-1H-inden-5-yloxy)ethyl)-1-methyl-1H-imidazole-4-sulfonamide], the Ki is ≤ 10 nM.
The same measure for `Cn1cnc(S(=O)(=O)NCCOc2ccc3c(c2)C(Cc2ccccc2)C(N2CCC2)C3)c1` (stereo not drawn) [Example 202, N-(2-(2-(Azetidin-1-yl)-3-benzyl-2,3-dihydro-1H-inden-5-yloxy)ethyl)-1-methyl-1H-imidazole-4-sulfonamide]: ≤ 10 nM.
With `CC1CN(C2Cc3cc(F)c(OCCNS(=O)(=O)c4cn(C)cn4)cc3C2Cc2ccccc2)C1` (stereo not drawn) [Example 203, N-(2-(3-Benzyl-6-fluoro-2-(3-methylazetidin-1-yl)-2,3-dihydro-1H-inden-5-yloxy)ethyl)-1-methyl-1H-imidazole-4-sulfonamide], the Ki was ≤ 100 nM.
For `CC1CN(C2Cc3ccc(OCCNS(=O)(=O)c4cn(C)cn4)cc3C2Cc2ccccc2)C1` (stereo not drawn) [Example 204, N-(2-(3-Benzyl-2-(3-methylazetidin-1-yl)-2,3-dihydro-1H-inden-5-yloxy)ethyl)-1-methyl-1H-imidazole-4-sulfonamide] the value was ≤ 100 nM.
Regarding `Cn1cnc(S(=O)(=O)NCCOc2ccc3c(c2)C(Cc2ccccc2)C(N2CC(C)(C)C2)C3)c1` (stereo not drawn) [Example 205, N-(2-{[3-Benzyl-2-(3,3-dimethylazetidin-1-yl)-2,3-dihydro-1H-inden-5-yl]oxy}ethyl)-1-methyl-1H-imidazole-4-sulfonamide], the Ki was ≤ 100 nM.
Consider `CN(CCOc1cc2c(cc1F)CC(N1CC(C)(O)C1)C2Cc1ccccc1)S(=O)(=O)c1cn(C)cn1` (stereo not drawn) [Example 207, N-(2-(3-Benzyl-6-fluoro-2-(3-hydroxy-3-methylazetidin-1-yl)-2,3-dihydro-1H-inden-5-yloxy)ethyl)-N,1-dimethyl-1H-imidazole-4-sulfonamide], for which the Ki is ≤ 1000 nM.
